Each structure is given as a SMILES string.

The source of these data is publication PMC6069857, “Effects of novel HDAC inhibitors on urothelial carcinoma cells” (Clinical Epigenetics, 2018).

Common to all, as to format: cell-based, human
In data set [1] the test system is UCCs. Nature of the data set: Western blot of acetylated α-tubulin and histones H3/H4. Particulars: 48 h; 19i 1 or 2 μM, SAHA 2.5 μM. As for the experimental part: Total protein extraction, purification of histones, and Western blot analysis were performed as previously described. Briefly, cells were incubated for 30 min on ice in RIPA-buffer (150 mM NaCl, 1% Triton X-100, 0.5% desoxycholate, 1% Nonidet P-40, 0.1% SDS, 1 mM EDTA, 50 mM TRIS (pH 7.6)) containing 10 μl/ml protease inhibitor cocktail (#P-8340, Sigma Aldrich, St. Louis, MO). Histones were extracted for detection of histone H3 and H4 acetylation by a modified published protocol employing sulfuric acid extraction and TCA-precipitation. Concentrations of total protein and histones were determined by BCA protein assay (Thermo Fisher Scientific, Carlsbad, CA). Subsequently, total cell proteins (15 μg) or extracted histones (2 μg) were separated by SDS-PAGE (total proteins 10–12% gels, histones 15% gels), transferred to PVDF membranes (Merck Millipore, Berlin, Germany), and were incubated with primary antibodies (at RT for 1 h or 4 °C overnight, see Additional file 3: Table S2) following blocking with 5% non-fat milk or BSA (bovine serum albumin) in TBST (150 mM NaCl, 10 mM TRIS, pH 7.4 and 0.1% Tween-20). For signal detection, membranes were incubated with a suitable horseradish peroxidase-conjugated secondary antibody (see Additional file 2: Table S1) at RT for 1 h and signals were visualized by SuperSignal™ West Femto (Thermo Fisher Scientific, Carlsbad, CA) and WesternBright Quantum kit (Biozym, Hessisch Oldendorf, Germany).

The test system of data set [2] is VM-CUB1. Nature of the data set: High-content analysis-based fluorescent live/dead assay. The settings on record: VMCub1, HCA, 72 h. As for the experimental part: (§1) Live and dead cells were assayed by high-content analysis (HCA). […] After 72 h of treatment, cells were stained with a mixture of Hoechst 33342 (Sigma Aldrich, St. Louis, MO), calcein AM (Merck Millipore, Germany), and propidium iodide (Santa Cruz Biotechnology, Heidelberg) for cell nuclei, live and dead cells. The staining solution was replaced by PBS after 20 min. Images were acquired using ArrayScan XTI Live High Content Platform (Thermo Fisher Scientific Inc., USA) using excitation filters of 386, 485, and 560 nm for Hoechst 33342, calcein AM, and propidium iodide, respectively. The results were analyzed using HCS Studio Cellomics Scan (Thermo Fisher Scientific Inc., USA).

Data set [3] has as its system UM-UC-3. The data set is described as above. Particulars: UM-UC-3, HCA, 72 h. The method, then:
as §1

For data set [4], the system named is 639-V. Described as above. The settings on record: HCA, 72 h. As for the experimental part:
as §1

In data set [5] the test system is HBLAK. The description is as above. The settings on record: HCA, 72 h. The method, then:
as §1

For data set [6], the system named is VM-CUB1. Nature of the data set: MTT viability assay (CC50). As for the experimental part: (§2) Further experiments were performed in VM-CUB1 and UM-UC-3 cells overexpressing HDAC4 (see below). Standard UCCs were obtained from the DSMZ (Braunschweig, Germany) and Dr. H.B. Grossmann HB (Houston, USA). For comparison, we investigated the spontaneously immortalized normal human bladder cell line HBLAK (provided by CELLnTEC, Bern, Switzerland) and the immortalized human embryonic kidney cell line HEK-293 (provided by Dr. V. Kolb-Bachofen, Duesseldorf, Germany). Cells were cultured and treated in DMEM GlutaMAX-I (Gibco, Darmstadt, Germany; UCCs and HEK-293) supplemented with 10% fetal calf serum (Biochrom, Berlin, Germany), except for HBLAK cultured in CnT-Prime Epithelial Culture Medium (CELLnTEC, Bern, Switzerland; HBLAK), at 37 °C and 5% CO2. STR (short tandem repeat) profiling via DNA fingerprint analysis was performed for all cell lines. Primary cultures of normal urothelial cells (UP) were established from healthy ureters removed during tumor nephrectomy and cultured as described. These cultures were used with informed consent of the patients and approval by the Ethics Committee of the Medical Faculty of the Heinrich-Heine-University, study number 1788. All inhibitors were dissolved in DMSO and stored as 10 mM stocks. […] The pan-HDACi inhibitor SAHA previously studied in detail was used for comparison. Solvent control cells were treated with equal amounts of DMSO.
(§3) For the determination of cellular mean cytotoxic concentration (CC50), UCCs, non-malignant control cells, and HDAC4-overexpressing clones were seeded in a 96-well format and treated once with a range of defined concentrations of the HDAC inhibitors. After 72 h, viability was quantified by NAD(P)H-dependent 3-(4,5-dimethylthiazol-2-yl)-2,5-diphenyltetrazolium bromide dye reduction assay (MTT, Sigma Aldrich, St. Louis, MO). CC50 values were estimated from three independent experiments by non-linear regression analysis (four-parameter logistic equation) using Prism 4.0 (Graph Pad) or Origin 8.0 (Origin Lab, Northhampton, GB). For time-dependent proliferation experiments, viability of untreated or inhibitor-treated cells was measured after 24, 48, and 72 h.

Data set [7] concerns UM-UC-3. The data set can be described thus: MTT viability assay (CC50). The settings on record: UM-UC-3, MTT. As for the experimental part: as §2, §3
The subject of data set [8] is 639-V. The data set can be described thus: MTT viability assay (CC50). As for the experimental part: as §2, §3
For data set [9], the system named is HBLAK. The data set can be described thus: MTT viability assay (CC50). Particulars: 72 h of incubation. As for the experimental part:
as §2, §3

The test system of data set [10] is UC cell lines (VM-CUB1, UM-UC-3, 639-V). Nature of the data set: MTT viability assay, UC cell lines taken together. The settings on record: MTT and HCA live/dead assays. As for the experimental part:
Further experiments were performed in VM-CUB1 and UM-UC-3 cells overexpressing HDAC4 (see below). Standard UCCs were obtained from the DSMZ (Braunschweig, Germany) and Dr. H.B. Grossmann HB (Houston, USA). For comparison, we investigated the spontaneously immortalized normal human bladder cell line HBLAK (provided by CELLnTEC, Bern, Switzerland) and the immortalized human embryonic kidney cell line HEK-293 (provided by Dr. V. Kolb-Bachofen, Duesseldorf, Germany). Cells were cultured and treated in DMEM GlutaMAX-I (Gibco, Darmstadt, Germany; UCCs and HEK-293) supplemented with 10% fetal calf serum (Biochrom, Berlin, Germany), except for HBLAK cultured in CnT-Prime Epithelial Culture Medium (CELLnTEC, Bern, Switzerland; HBLAK), at 37 °C and 5% CO2. […]
For the determination of cellular mean cytotoxic concentration (CC50), UCCs, non-malignant control cells, and HDAC4-overexpressing clones were seeded in a 96-well format and treated once with a range of defined concentrations of the HDAC inhibitors. After 72 h, viability was quantified by NAD(P)H-dependent 3-(4,5-dimethylthiazol-2-yl)-2,5-diphenyltetrazolium bromide dye reduction assay (MTT, Sigma Aldrich, St. Louis, MO). […] For time-dependent proliferation experiments, viability of untreated or inhibitor-treated cells was measured after 24, 48, and 72 h.

`O=C(CCCCCCC(=O)Nc1ccccc1)NO` [SAHA, suberoylanilide hydroxamic acid, reference compound]: in [1], the “acetylation of α-tubulin” value is listed as “strongly induced”.

For `O=C(NCC1(c2nc(-c3ccccc3)cs2)CCOCC1)c1cccc(-c2noc(C(F)(F)F)n2)c1` [TMP269], the CC50 in data set [2] was determined as 20.1 µM; in [3], 14.6 µM; in data set [4], 16.5 µM; in [5] it was 10.6 µM; in [6] (VM-CUB1, MTT, 72 h of incubation) it was 45.9 µM; in data set [6] (VMCub1, MTT, 24 h) it was 115 µM. Further, the CC50 in data set [6] (VMCub1, MTT, 48 h) stood at 115 µM; in data set [7] (24 h) it was 110 µM; in data set [7] (48 h), 73.8 µM; in [7] (72 h of incubation) it was 32.3 µM; in data set [8] (24 h), 96.1 µM; in data set [8] (48 h) it was 65.8 µM. For the same compound, the values for the 50% cytotoxic concentration (CC50) in [8] (72 h of incubation) and in data set [9] were 39.4 µM and 48.7 µM, respectively. The “concentrations effective on / impeding proliferation of UC cell lines” value in data set [10] was > 10 µM.
